# Test results reported in article PMC6956259, “Mechanistic Evaluation of Enhanced Curcumin Delivery through Human Skin In Vitro from Optimised Nanoemulsion Formulations Fabricated with Different Penetration Enhancers” (Pharmaceutics, 2019).
# Like-named read-outs stand apart in the source and are kept apart here.
# Legend:
# [1] = cited from earlier work
# [2] = Stability of curcumin in the receptor medium; type: physicochemical; settings: 6% Volpo in water, 35 °C, at 0, 1, 6, 12 and 24 h
# Description: Standard solutions of curcumin (5, 10, 12.5 and 25 µg/mL) were prepared in a 6% Volpo aqueous solution and stored at 35 ± 0.5 °C for 24 h. Samples removed at 1, 6, 12 and 24 h were assayed for drug content by HPLC.
SMILES,log P [1],Amount of curcumin remaining [2],log P ([1]; no reference given)
"CCCCOC(=O)c1ccc(O)cc1 [butyl paraben, reference compound]",3.6,–,–
"COc1cc(/C=C/C(=O)CC(=O)/C=C/c2ccc(O)c(OC)c2)ccc1O [curcumin, Curcumin]",–,> 99%,3.6
